From patent US20240122875A1, “USE OF MITOXANTRONE HYDROCHLORIDE LIPOSOME” (CSPC ZHONGQI PHARMACEUTICAL TECHNOLOGY (SHIJIAZHUANG) CO., …, priority 2021, published 2024)
Where a name gives a salt, the structure may show the parent alone.

Tested on: recurrent/metastatic breast cancer
Assay: Inventor's previous clinical research, monotherapy of recurrent/metastatic breast cancer, liposome versus ordinary injection
Format: in vivo, human
Conditions: control group, 14 mg/m^2 every 4 weeks
Procedure: The inventor's previous clinical research included mitoxantrone hydrochloride monotherapy in the treatment of recurrent/metastatic breast cancer. There were 30 cases in the experimental group and the control group respectively. […] The control group was given mitoxantrone hydrochloride injection in 14 mg/m^2, every 4 weeks as a cycle.

**Q.** With `O=C1c2c(O)ccc(O)c2C(=O)c2c(NCCNCCO)ccc(NCCNCCO)c21` [mitoxantrone hydrochloride injection, mitoxantrone hydrochloride] as the compound, how does the ORR (2/30) read?
**A.** 6.7%

**Q.** What about the DCR (9/30) of the same compound?
**A.** 30%

**Q.** What about the PR (30 cases) of the same compound?
**A.** 2 cases
